Measured values from patent US10681909B2, “Herbicidal triazoles” (FMC Corporation, priority 2014, dated 2020).

Experiments:
kochia = experiment: Test A preemergence; assay type: in vivo, Kochia scoparia; settings: 0 to 100 scale (0 no effect, 100 complete control)
In short: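 Ratings reflect visual injury after ~10 d in greenhouse, 0 = no effect, 100 = complete control. Postemergence treatment was applied to one- to two-leaf seedlings; preemergence treatment was a directed soil spray at planting.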

oat, wild = experiment: Test D preemergence; assay type: in vivo, Avena fatua; settings: for Plant response rating (0 to 100), Oat, Wild: 16 g ai/ha, 0 is no effect, 100 is complete control; for Plant response rating: Oat, Wild: scale 0 to 100
Description: (§1) Seeds of plant species selected from bluegrass (annual bluegrass, Poa annua), blackgrass (Alopecurus myosuroides), canarygrass (Phalaris minor), chickweed (common chickweed, Stellaria media), galium (catchweed bedstraw, Galium aparine), bromegrass, down (downy bromegrass, Bromus tectorum), Russian thistle (Salsola kali), field poppy (Papaver rhoeas), field violet (Viola arvensis), foxtail, green (green foxtail, Setaria viridis), deadnettle (henbit deadnettle, Lamium amplexicaule), ryegrass, Ital. (Italian ryegrass, Lolium multiflorum), kochia (Kochia scoparia), lambsquarters (Chenopodium album), oilseed rape (Brassica napus), pigweed (Amaranthus retroflexus), chamomile (scentless chamomile, Matricaria inodora), speedwell (bird's-eye speedwell, Veronica persica), barley, spring (spring barley, Hordeum vulgare), wheat, spring (spring wheat, Triticum aestivum), buckwheat, wild (wild buckwheat, Polygonum convolvulus), wild mustard (Sinapis arvensis), oat, wild (wild oat, Avena fatua), radish, wild (wild radish, Raphanus raphanistrum), […]), barley, winter (winter barley, Hordeum vulgare), and wheat, winter (winter wheat, Triticum aestivum) were planted into a silt loam soil and treated preemergence with test chemicals formulated in a non-phytotoxic solvent mixture which included a surfactant. At the same time, these species were planted in pots containing Sunshine Redi-Earth® planting medium comprising spaghnum peat moss, vermiculite, starter nutrients and dolomitic limestone and treated with postemergence applications of the test chemicals formulated in the same manner. Plants ranged in height from 2 to 18 cm (1- to 4-leaf stage). Treated plants and controls were maintained in a controlled growth environment for 14 to 21 d after which time all species were compared to controls and visually evaluated. […] A dash (-) response means no test result.

oilseed rape = experiment: Test D preemergence; assay type: in vivo, Brassica napus; settings: for Plant response rating (0 to 100), Oilseed Rape: 16 g ai/ha, 0 is no effect, 100 is complete control; for Plant response rating: Oilseed Rape: scale 0 to 100
Description: as §1

barley, winter = experiment: Test D preemergence; assay type: in vivo, Hordeum vulgare; settings: for Plant response rating (0 to 100), Barley, Winter: 16 g ai/ha, 0 is no effect, 100 is complete control; for Plant response rating: Barley, Winter: scale 0 to 100
Description: as §1

barley, spring = experiment: Test D preemergence; assay type: in vivo, Hordeum vulgare; settings: for Plant response rating (0 to 100), Barley, Spring: 16 g ai/ha, 0 is no effect, 100 is complete control; for Plant response rating: Barley, Spring: scale 0 to 100
Description: as §1

Russian thistle = experiment: Test D postemergence; assay type: in vivo, Salsola kali; settings: scale 0 to 100
Description: as §1

blackgrass = experiment: Test C preemergence; assay type: in vivo, Alopecurus myosuroides; settings: for Plant response rating (scale of 0 to 100 where 0 is no effect and 100 is complete control): Blackgrass, preemergence; for Blackgrass plant response rating (0 to 100): Preemergence, visual rating after 13 to 15 d
Description: Seeds of plant species selected from blackgrass (Alopecurus myosuroides), ryegrass, Italian (Italian ryegrass, Lolium multiflorum), wheat (winter wheat, Triticum aestivum), galium (catchweed bedstraw, Galium aparine), corn (Zea mays), crabgrass, large (large crabgrass, Digitaria sanguinalis), foxtail, giant, (giant foxtail, Setaria faberii), johnsongrass (Sorghum halepense), lambsquarters (Chenopodium album), morningglory (Ipomoea coccinea), nutsedge, yellow (yellow nutsedge, Cyperus esculentus), pigweed (Amaranthus retroflexus), ragweed (common ragweed, Ambrosia elatior), soybean (Glycine max), barnyardgrass (Echinochloa crus-galli), oilseed rape (Brassica napus), waterhemp (common waterhemp, Amaranthus rudis), and velvetleaf (Abutilon theophrasti) were planted into a blend of loam soil and sand and treated preemergence with test chemicals formulated in a non-phytotoxic solvent mixture which included a surfactant. At the same time, plants selected from these crop and weed species and also chickweed (common chickweed, Stellaria media), oat, wild (wild oat, Avena fatua), and kochia (Kochia scoparia), were planted in pots containing Sunshine Redi-Earth® planting medium comprising spaghnum peat moss, vermiculite, starter nutrients and dolomitic limestone and treated with postemergence applications of test chemicals formulated in the same manner. Plants ranged in height from 2 to 18 cm (1- to 4-leaf stage) for postemergence treatments. […] A dash (-) response means no test result.

field violet = experiment: Test D postemergence; assay type: in vivo, Viola arvensis; settings: scale 0 to 100
Description: as §1

windgrass = experiment: Test D preemergence; assay type: in vivo, Apera spica-venti; settings: for Plant response rating (0 to 100), Windgrass: 16 g ai/ha, 0 is no effect, 100 is complete control; for Plant response rating: Windgrass: scale 0 to 100
Description: as §1

| Compound | Plant response rating, Kochia (kochia; 125 g ai/ha) | Plant response rating, Kochia (kochia; 500 g ai/ha, approx. 10 d) | Plant response rating (0 to 100), Oat, Wild (oat, wild) | Plant response rating: Oat, Wild (oat, wild; 62 g ai/ha) | Plant response rating: Oat, Wild (oat, wild; 125 g ai/ha) | Plant response rating (0 to 100), Oilseed Rape (oilseed rape) | Plant response rating: Oilseed Rape (oilseed rape; 62 g ai/ha) | Plant response rating: Oilseed Rape (oilseed rape; 125 g ai/ha) | Plant response rating (0 to 100), Barley, Winter (barley, winter) | Plant response rating: Barley, Winter (barley, winter; 31 g ai/ha) | Plant response rating: Barley, Winter (barley, winter; 62 g ai/ha) | Plant response rating: Barley, Winter (barley, winter; 125 g ai/ha) | Plant response rating (0 to 100), Barley, Spring (barley, spring) | Plant response rating: Barley, Spring (barley, spring; 31 g ai/ha) | Plant response rating: Barley, Spring (barley, spring; 62 g ai/ha) | Plant response rating: Barley, Spring (barley, spring; 125 g ai/ha) | Plant response rating: Russian Thistle (Russian thistle; 16 g ai/ha) | Plant response rating: Russian Thistle (Russian thistle; 31 g ai/ha) | Plant response rating: Russian Thistle (Russian thistle; 62 g ai/ha) | Plant response rating: Russian Thistle (Russian thistle; 125 g ai/ha) | further results |
| --- | --- | --- | --- | --- | --- | --- | --- | --- | --- | --- | --- | --- | --- | --- | --- | --- | --- | --- | --- | --- | --- |
| FC(F)(F)COc1nc(-c2ccccc2)nn1Cc1ccnc(C(F)(F)F)c1 [Compound 24] | 80 | 90 | 30 | 30 | 35 | 15 | 55 | 70 | 15 | 15 | 25 | 25 | 20 | 25 | 30 | 35 | 65 | 75 | 85 | 85 | Plant response rating (scale of 0 to 100 where 0 is no effect and 100 is complete control) (blackgrass; 125 g ai/ha): 90; Plant response rating (scale of 0 to 100 where 0 is no effect and 100 is complete control) (blackgrass; 250 g ai/ha): 90; Blackgrass plant response rating (0 to 100) (blackgrass; 31 g ai/ha): 10; Blackgrass plant response rating (0 to 100) (blackgrass; 62 g ai/ha): 60; Plant response rating: Field Violet (field violet; 16 g ai/ha): 70; Plant response rating: Field Violet (field violet; 31 g ai/ha): 75; Plant response rating: Field Violet (field violet; 62 g ai/ha): 80; Plant response rating: Field Violet (field violet; 125 g ai/ha): 90; Plant response rating (0 to 100), Windgrass (windgrass): 0; Plant response rating: Windgrass (windgrass; 62 g ai/ha): 65; Plant response rating: Windgrass (windgrass; 125 g ai/ha): 100 |
| CCOc1nc(-c2ccccc2)nn1Cc1ccnc(C(F)(F)F)c1 [Compound 27] | 100 | 100 | 25 | 45 | 75 | 5 | 60 | 80 | 15 | 25 | 30 | 35 | 25 | 25 | 35 | 35 | 75 | 80 | 85 | 85 | Plant response rating (scale of 0 to 100 where 0 is no effect and 100 is complete control) (blackgrass; 125 g ai/ha): 50; Plant response rating (scale of 0 to 100 where 0 is no effect and 100 is complete control) (blackgrass; 250 g ai/ha): 90; Blackgrass plant response rating (0 to 100) (blackgrass; 31 g ai/ha): 5; Blackgrass plant response rating (0 to 100) (blackgrass; 62 g ai/ha): 5; Plant response rating: Field Violet (field violet; 16 g ai/ha): 70; Plant response rating: Field Violet (field violet; 31 g ai/ha): 75; Plant response rating: Field Violet (field violet; 62 g ai/ha): 80; Plant response rating: Field Violet (field violet; 125 g ai/ha): 80; Plant response rating (0 to 100), Windgrass (windgrass): 5; Plant response rating: Windgrass (windgrass; 62 g ai/ha): 80; Plant response rating: Windgrass (windgrass; 125 g ai/ha): 95 |
| COc1nc(-c2ccc(Cl)cc2)nn1Cc1ccnc(C(F)(F)F)c1 [Compound 28] | 70 | 90 | 35 | 30 | 35 | 10 | 15 | 15 | 10 | 15 | 20 | 25 | 15 | 20 | 20 | 25 | 70 | 75 | 85 | 85 | Plant response rating: Field Violet (field violet; 16 g ai/ha): 75; Plant response rating: Field Violet (field violet; 31 g ai/ha): 80; Plant response rating: Field Violet (field violet; 62 g ai/ha): 100; Plant response rating: Field Violet (field violet; 125 g ai/ha): 100; Plant response rating (0 to 100), Windgrass (windgrass): 25; Plant response rating: Windgrass (windgrass; 62 g ai/ha): 50; Plant response rating: Windgrass (windgrass; 125 g ai/ha): 80 |
| Fc1ccc(-c2nc(OCC(F)(F)F)n(Cc3ccnc(C(F)(F)F)c3)n2)cc1 [Compound 30] | 100 | 100 | 45 | 70 | 80 | 10 | 35 | 55 | 20 | 25 | 30 | 40 | 30 | 40 | 35 | 45 | 80 | 90 | 90 | 90 | Plant response rating (scale of 0 to 100 where 0 is no effect and 100 is complete control) (blackgrass; 125 g ai/ha): 90; Plant response rating (scale of 0 to 100 where 0 is no effect and 100 is complete control) (blackgrass; 250 g ai/ha): 90; Blackgrass plant response rating (0 to 100) (blackgrass; 31 g ai/ha): 60; Blackgrass plant response rating (0 to 100) (blackgrass; 62 g ai/ha): 80; Plant response rating: Field Violet (field violet; 16 g ai/ha): 75; Plant response rating: Field Violet (field violet; 31 g ai/ha): 98; Plant response rating: Field Violet (field violet; 62 g ai/ha): 95; Plant response rating: Field Violet (field violet; 125 g ai/ha): 100; Plant response rating (0 to 100), Windgrass (windgrass): 25; Plant response rating: Windgrass (windgrass; 62 g ai/ha): 100; Plant response rating: Windgrass (windgrass; 125 g ai/ha): 100 |
| FC(F)(F)COc1nc(-c2ccc(Cl)cc2)nn1Cc1ccnc(C(F)(F)F)c1 [Compound 31] | 90 | 90 | 35 | 55 | 75 | 10 | 35 | 35 | 25 | 35 | 40 | 50 | 35 | 45 | 45 | 50 | 70 | 80 | 85 | 90 | Plant response rating (scale of 0 to 100 where 0 is no effect and 100 is complete control) (blackgrass; 125 g ai/ha): 90; Plant response rating (scale of 0 to 100 where 0 is no effect and 100 is complete control) (blackgrass; 250 g ai/ha): 95; Blackgrass plant response rating (0 to 100) (blackgrass; 31 g ai/ha): 80; Blackgrass plant response rating (0 to 100) (blackgrass; 62 g ai/ha): 70; Plant response rating: Field Violet (field violet; 16 g ai/ha): 100; Plant response rating: Field Violet (field violet; 31 g ai/ha): 100; Plant response rating: Field Violet (field violet; 62 g ai/ha): 100; Plant response rating: Field Violet (field violet; 125 g ai/ha): 100; Plant response rating (0 to 100), Windgrass (windgrass): 60; Plant response rating: Windgrass (windgrass; 62 g ai/ha): 100; Plant response rating: Windgrass (windgrass; 125 g ai/ha): 100 |
